Test results reported in the NIST ThermoML archive (doi:10.1016/j.tca.2009.08.016).
± gives the expanded uncertainty stated by the source.

Columns and labels:
[1] = Crystal; DTA
[2] = Molar enthalpy of transition or fusion; settings: Crystal; DSC

SMILES: CCN(CC)CC(=O)Nc1c(C)cccc1C [2-(diethylamino)-N-(2,6-dimethylphenyl)acetamide]
- Normal melting temperature [1]: 67.54 ± 1.1 °C
- Molar enthalpy of transition or fusion [2]: 3.92 ± 0.12 kcal/mol

SMILES: O=C(Oc1ccccc1)c1ccccc1O [phenyl salicylate]
- Normal melting temperature [1]: 41.93 ± 1.1 °C
- Molar enthalpy of transition or fusion [2]: 4.59 ± 0.239 kcal/mol
